Patent publication US10913727B2, “Modulators of the integrated stress pathway” (Calico Life Sciences LLC, priority 2016, dated 2021)

Test system: HEK293T cells carrying the ATF4 luciferase reporter
Assay: ATF4-Luc assay, in vitro model of Vanishing Cell White Matter Disease (VWMD)
Assay type: cell-based
Settings: Homo sapiens, HEK-293T, 1 μg/mL tunicamycin, 7 hours, One Glo luminescence
How it was run: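 Stable HEK293T line with human ATF4 5′-UTR–firefly luciferase reporter treated with 1 μg/mL tunicamycin plus 200 nM compound for 7 h. Luminescence read; EC50 derived.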

First: Cc1nc(C(=O)NC23CCC(NC(=O)COc4ccc(Cl)c(F)c4)(CC2)C(O)C3)cs1 (stereo not shown) [Compound 473, N-{4-[2-(4-chloro-3-fluorophenoxy)acetamido]-3-hydroxybicyclo[2.2.2]octan-1-yl}-2-methyl-1,3-thiazole-4-carboxamide]
Second: Cc1nc(C(=O)NC23CCC(NC(=O)COc4ccc(Cl)c(F)c4)(CC2)C(O)C3)n[nH]1 (stereo not shown) [Compound 487, N-{4-[2-(4-chloro-3-fluorophenoxy)acetamido]-3-hydroxybicyclo[2.2.2]octan-1-yl}-5-methyl-1H-1,2,4-triazole-3-carboxamide]
The EC50 of the first is higher: 50 to 250 nM for the first, less than 50 nM for the second. The second is the more potent here.

First: CN(C)c1cccc(C(=O)NC23CC(NC(=O)COc4ccc(Cl)c(F)c4)(C2)C3)c1 [Compound 534, N-{3-[2-(4-chloro-3-fluorophenoxy)acetamido]bicyclo[1.1.1]pentan-1-yl}-3-(dimethylamino)benzamide]
Second: Cn1cc(C(=O)NC23CC(NC(=O)COc4ccc(Cl)c(F)c4)(C2)C3)ccc1=O [Compound 818, N-{3-[2-(4-chloro-3-fluorophenoxy)acetamido]bicyclo[1.1.1]pentan-1-yl}-1-methyl-6-oxo-1,6-dihydropyridine-3-carboxamide]
The EC50 of the first is lower: 250 to 1000 nM for the first, greater than 2000 nM for the second.

`O=C(COc1ccc(Cl)c(F)c1)NC12CC(NC(=O)c3ccncn3)(C1)C2` [Compound 187, N-{3-[2-(4-chloro-3-fluorophenoxy)acetamido]bicyclo[1.1.1]pentan-1-yl}pyrimidine-4-carboxamide] and `CC(=O)c1ccnc(C(=O)NC23CC(NC(=O)COc4ccc(Cl)c(F)c4)(C2)C3)c1` [Compound 501, 4-acetyl-N-{3-[2-(4-chloro-3-fluorophenoxy)acetamido]bicyclo[1.1.1]pentan-1-yl}pyridine-2-carboxamide] fall in the same range of EC50: 1000 to 2000 nM for the first, 1000 to 2000 nM for the second.

First: O=C(COc1ccc(Cl)c(F)c1)NC12CCC(NC(=O)c3ccc(F)cn3)(CC1)C(O)C2 (stereo not shown) [Compound 168, N-{4-[2-(4-chloro-3-fluorophenoxy)acetamido]-2-hydroxybicyclo[2.2.2]octan-1-yl}-5-fluoropyridine-2-carboxamide]
Second: COc1ccc(C(=O)NC23CCC(NC(=O)COc4ccc(Cl)c(F)c4)(CC2)C(O)C3)nc1 (stereo not shown) [Compound 922, N-{4-[2-(4-chloro-3-fluorophenoxy)acetamido]-3-hydroxybicyclo[2.2.2]octan-1-yl}-5-methoxypyridine-2-carboxamide]
The EC50 of the first is lower: 50 to 250 nM for the first, 250 to 1000 nM for the second. The first is the more potent here.

Compared with `O=C(COc1ccc(Cl)c(F)c1)NC12CC(Nc3nccn4cccc34)(C1)C2` [Compound 434, 2-(4-chloro-3-fluorophenoxy)-N-{3-[(pyrrolo[1,2-a]pyrazin-1-yl)amino]bicyclo[1.1.1]pentan-1-yl}acetamide], `Cc1nnc(NC23CC(NC(=O)COc4ccc(Cl)c(F)c4)(C2)C3)o1` [Compound 393, 2-(4-chloro-3-fluorophenoxy)-N-{3-[(5-methyl-1,3,4-oxadiazol-2-yl)amino]bicyclo[1.1.1]pentan-1-yl}acetamide] is higher in EC50: 250 to 1000 nM for the first, greater than 2000 nM for the second.

Compared with `Cc1ccc(C(=O)NC23CC(NC(=O)COc4ccc(Cl)c(F)c4)(C2)C3)nn1` [Compound 137, N-{3-[2-(4-chloro-3-fluorophenoxy)acetamido]bicyclo[1.1.1]pentan-1-yl}-6-methylpyridazine-3-carboxamide], `Cc1ccoc1C(=O)NC12CC(NC(=O)COc3ccc(Cl)c(F)c3)(C1)C2` [Compound 545, N-{3-[2-(4-chloro-3-fluorophenoxy)acetamido]bicyclo[1.1.1]pentan-1-yl}-3-methylfuran-2-carboxamide] is lower in EC50: 1000 to 2000 nM for the first, 250 to 1000 nM for the second.

`CCc1nc(C(=O)NC23CC(NC(=O)COc4ccc(Cl)c(Cl)c4)(C2)C3)cs1` [Compound 698, N-{3-[2-(3,4-dichlorophenoxy)acetamido]bicyclo[1.1.1]pentan-1-yl}-2-ethyl-1,3-thiazole-4-carboxamide] and `Cc1nn(C)c(C(=O)NC23CC(NC(=O)COc4ccc(Cl)c(Cl)c4)(C2)C3)c1F` [Compound 500, N-{3-[2-(3,4-dichlorophenoxy)acetamido]bicyclo[1.1.1]pentan-1-yl}-4-fluoro-1,3-dimethyl-1H-pyrazole-5-carboxamide] cannot be ordered by EC50: less than 50 nM for the first, less than 50 nM for the second.

First: Cn1nnc2cc(C(=O)NC34CC(NC(=O)COc5ccc(Cl)c(F)c5)(C3)C4)ccc21 [Compound 785, N-{3-[2-(4-chloro-3-fluorophenoxy)acetamido]bicyclo[1.1.1]pentan-1-yl}-1-methyl-1H-benzotriazole-5-carboxamide]
Second: CC(C)c1ccc(C(=O)NC23CC(NC(=O)COc4ccc(Cl)c(F)c4)(C2)C3)cn1 [Compound 642, N-{3-[2-(4-chloro-3-fluorophenoxy)acetamido]bicyclo[1.1.1]pentan-1-yl}-6-(propan-2-yl)pyridine-3-carboxamide]
The EC50 of the first is higher: greater than 2000 nM for the first, 1000 to 2000 nM for the second.

First: O=C(COc1ccc(Cl)c(F)c1)NC12CCC(NC(=O)c3cc(C(F)(F)F)ccn3)(CC1)CC2O (stereo not shown) [Compound 933, N-{4-[2-(4-chloro-3-fluorophenoxy)acetamido]-3-hydroxybicyclo[2.2.2]octan-1-yl}-4-(trifluoromethyl)pyridine-2-carboxamide]
Second: O=C(COc1ccc(Cl)c(F)c1)NC12CCC(NC(=O)c3ccns3)(CC1)C[C@@H]2O [Compound 683, N-{(3S)-4-[2-(4-chloro-3-fluorophenoxy)acetamido]-3-hydroxybicyclo[2.2.2]octan-1-yl}-1,2-thiazole-5-carboxamide]
The EC50 of the first is higher: 50 to 250 nM for the first, less than 50 nM for the second. The second is the more potent here.

Compared with `O=C(COc1ccc(Cl)c(F)c1)NC12CCC(NC(=O)c3cccnn3)(CC1)C(O)C2` (stereo not shown) [Compound 227, N-{4-[2-(4-chloro-3-fluorophenoxy)acetamido]-2-hydroxybicyclo[2.2.2]octan-1-yl}pyridazine-3-carboxamide], `O=C(COc1ccc(Cl)c(F)c1)NC12CCC(NC(=O)c3ccc(F)cc3)(CC1)[C@@H](O)C2` [Compound 489, N-{(2S)-4-[2-(4-chloro-3-fluorophenoxy)acetamido]-2-hydroxybicyclo[2.2.2]octan-1-yl}-4-fluorobenzamide] is lower in EC50: 250 to 1000 nM for the first, 50 to 250 nM for the second.

Compared with `CS(=O)(=O)c1ccccc1C(=O)NC12CC(NC(=O)COc3ccc(Cl)c(F)c3)(C1)C2` [Compound 827, N-{3-[2-(4-chloro-3-fluorophenoxy)acetamido]bicyclo[1.1.1]pentan-1-yl}-2-(methanesulfonyl)benzamide], `O=C(COc1ccc(Cl)c(F)c1)NC12CC(NC(=O)c3cncc(F)c3)(C1)C2` [Compound 792, N-{3-[2-(4-chloro-3-fluorophenoxy)acetamido]bicyclo[1.1.1]pentan-1-yl}-5-fluoropyridine-3-carboxamide] is lower in EC50: greater than 2000 nM for the first, 250 to 1000 nM for the second.

First: CC(C)c1ccc(C(=O)NC23CC(NC(=O)COc4ccc(Cl)c(Cl)c4)(C2)C3)cn1 [Compound 643, N-{3-[2-(3,4-dichlorophenoxy)acetamido]bicyclo[1.1.1]pentan-1-yl}-6-(propan-2-yl)pyridine-3-carboxamide]
Second: O=C(COc1ccc(Cl)c(Cl)c1)NC12CC(NC(=O)c3cnc(-c4ccccc4)o3)(C1)C2 [Compound 740, N-{3-[2-(3,4-dichlorophenoxy)acetamido]bicyclo[1.1.1]pentan-1-yl}-2-phenyl-1,3-oxazole-5-carboxamide]
The EC50 of the first is higher: 250 to 1000 nM for the first, less than 50 nM for the second. The second is the more potent here.

First: CCOc1ccsc1C(=O)NC12CC(NC(=O)COc3ccc(Cl)c(F)c3)(C1)C2 [Compound 551, N-{3-[2-(4-chloro-3-fluorophenoxy)acetamido]bicyclo[1.1.1]pentan-1-yl}-3-ethoxythiophene-2-carboxamide]
Second: CCc1noc(C)c1C(=O)NC12CC(NC(=O)COc3ccc(Cl)c(F)c3)(C1)C2 [Compound 824, N-{3-[2-(4-chloro-3-fluorophenoxy)acetamido]bicyclo[1.1.1]pentan-1-yl}-3-ethyl-5-methyl-1,2-oxazole-4-carboxamide]
The EC50 of the first is lower: 50 to 250 nM for the first, greater than 2000 nM for the second.

First: Cc1cc(C(=O)NC23CCC(NC(=O)COc4ccc(Cl)c(F)c4)(CC2)C(O)C3)on1 (stereo not shown) [Compound 326, N-{4-[2-(4-chloro-3-fluorophenoxy)acetamido]-3-hydroxybicyclo[2.2.2]octan-1-yl}-3-methyl-1,2-oxazole-5-carboxamide]
Second: O=C(COc1ccc(Cl)c(F)c1)NC12CCC(NC(=O)c3cccc(F)c3)(CC1)C[C@@H]2O [Compound 681, N-{(3S)-4-[2-(4-chloro-3-fluorophenoxy)acetamido]-3-hydroxybicyclo[2.2.2]octan-1-yl}-3-fluorobenzamide]
The EC50 of the first is higher: 50 to 250 nM for the first, less than 50 nM for the second. The second is the more potent here.

Compared with `O=C(COc1ccc(Cl)c(F)c1)NC12CCC(NC(=O)c3ccc(F)cc3)(CC1)CC2O` (stereo not shown) [Compound 231, N-{4-[2-(4-chloro-3-fluorophenoxy)acetamido]-3-hydroxybicyclo[2.2.2]octan-1-yl}-4-fluorobenzamide], `O=C(COc1ccc(Cl)c(F)c1)NC12CCC(NC(=O)c3ccc(-c4ccc(F)cc4)cn3)(CC1)CC2O` (stereo not shown) [Compound 939, N-{4-[2-(4-chloro-3-fluorophenoxy)acetamido]-3-hydroxybicyclo[2.2.2]octan-1-yl}-5-(4-fluorophenyl)pyridine-2-carboxamide] is higher in EC50: 50 to 250 nM for the first, greater than 2000 nM for the second.

Compared with `O=C(COc1ccc(Cl)c(F)c1)NC12CC(NC(=O)c3cnc(C(F)(F)F)nc3)(C1)C2` [Compound 133, N-{3-[2-(4-chloro-3-fluorophenoxy)acetamido]bicyclo[1.1.1]pentan-1-yl}-2-(trifluoromethyl)pyrimidine-5-carboxamide], `Cc1noc(C)c1C(=O)NC12CC(NC(=O)COc3ccc(Cl)c(F)c3)(C1)C2` [Compound 312, N-{3-[2-(4-chloro-3-fluorophenoxy)acetamido]bicyclo[1.1.1]pentan-1-yl}-3,5-dimethyl-1,2-oxazole-4-carboxamide] is higher in EC50: 1000 to 2000 nM for the first, greater than 2000 nM for the second. The first is the more potent here.

Compared with `Cc1nn(C)c2c(NC34CC(NC(=O)COc5ccc(Cl)c(F)c5)(C3)C4)ncnc12` [Compound 426, 2-(4-chloro-3-fluorophenoxy)-N-{3-[(1,3-dimethyl-1H-pyrazolo[4,3-d]pyrimidin-7-yl)amino]bicyclo[1.1.1]pentan-1-yl}acetamide], `O=C(COc1ccc(Cl)c(F)c1)NC12CCC(NC(=O)c3cnc4ccccn34)(CC1)CC2O` (stereo not shown) [Compound 595, N-{4-[2-(4-chloro-3-fluorophenoxy)acetamido]-3-hydroxybicyclo[2.2.2]octan-1-yl}imidazo[1,2-a]pyridine-3-carboxamide] is lower in EC50: greater than 2000 nM for the first, 1000 to 2000 nM for the second. The second is the more potent here.
